The record followed here is patent EP4755881A1 (Wuhan Createrna Science and Technology Co., Ltd., priority 2023, dated 2025).

A short description of series [1]: Pharmacokinetic study in rats (oral gavage and tail vein injection, plasma LC-MS/MS). The class given is in vivo. The conditions noted are these: rat, 1 mg/kg; for Cmax: read-out: Cmax. In outline: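 Male SD rats (200–250 g) are dosed orally (fasted; 5% DMSO/5% ethanol/60% PEG400/30% saline) or by tail-vein injection (10% ethanol/20% water/70% PEG400). Plasma sampled up to 24 h is analysed by LC-MS/MS. Non-compartmental analysis yields Cmax, C0, Tmax, AUC and T1/2.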

Another series addresses T1, LPAR1 receptor (Homo sapiens, UniProt Q92633).
T1 construct: expressed in transfected cells
Kind of series: LPAR1 in vitro biological activity evaluation 2: HTRF cAMP kit (LANCE Ultra cAMP Kit) assay in CHO stable transfected cell line expressing the LPAR1 receptor. The class given is cell-based. The conditions noted are these: Table 2, read-out: LPAR1 inhibitory activity IC50. Here is the method:
The inhibitory effects of the compounds of the present disclosure on the LPAR1 receptor were determined using a Chinese hamster ovary (CHO) stable transfected cell line expressing the LPAR1 receptor, through the HTRF cAMP kit (LANCE® Ultra cAMP Kit).
The CHO cell line expressing the LPAR1 receptor was cultured in F-12 medium (Gibco, 117650054) containing 10% fetal bovine serum (FBS, Avantor, 76294-180) and 0.2 mg/mL hygromycin B (Solarbio, H8080-1g) at 37°C with 5% CO2. Cell passage, recovery, and cryopreservation were performed according to conventional methods. The stable transfected cell line was cultured to 80% confluence, digested with trypsin to collect cells, counted, and then seeded at 5 µL/well in a 384-well plate (500 cells/5 µL). The 1× Stimulation Buffer was prepared according to the instructions of the kit (LANCE® Ultra cAMP Kit). 1 µL of the test compound solution (diluted to 10× with 1× Stimulation Buffer) was added to the corresponding experimental wells, followed by centrifugation and incubation at 37°C for 10 minutes. […] 5 µL/well of Eu-cAMP (diluted with Detection buffer) was added to the corresponding experimental wells. 5 µL/well of ULight™-anti-cAMP antibody (diluted with Detection buffer) was added to the corresponding experimental wells, followed by centrifugation and incubation at room temperature for 1 hour. After the incubation was completed, the readings at 665 nm and 620 nm under 330 nm excitation were detected using the HTS high-throughput drug screening multifunctional microplate reader (BMG, PHERAstar FSX). The IC50 values were calculated by fitting nonlinear regression (dose response - variable slope) using GraphPad Prism software.

The target of series [2] is hLPAR1 (human lysophosphatidic acid receptor 1, Accession No.: NM_001401.4) (Homo sapiens, UniProt Q92633). Description: cell-based. The conditions noted are these: Table 1; FLIPR method, CHO-K1 cells overexpressing hLPAR1; read-out: LPAR1 inhibitory activity IC50. The method, boiled down: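 Antagonist mode in CHO-K1 cells stably expressing hLPAR1, Fluo-4 loaded; compound preincubated 30 min at room temperature before 1 µM oleoyl-LPA (final) challenge.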

Read-outs that look alike come from different tables or passages of the source.

T1 sequence (Q92633 whole entry): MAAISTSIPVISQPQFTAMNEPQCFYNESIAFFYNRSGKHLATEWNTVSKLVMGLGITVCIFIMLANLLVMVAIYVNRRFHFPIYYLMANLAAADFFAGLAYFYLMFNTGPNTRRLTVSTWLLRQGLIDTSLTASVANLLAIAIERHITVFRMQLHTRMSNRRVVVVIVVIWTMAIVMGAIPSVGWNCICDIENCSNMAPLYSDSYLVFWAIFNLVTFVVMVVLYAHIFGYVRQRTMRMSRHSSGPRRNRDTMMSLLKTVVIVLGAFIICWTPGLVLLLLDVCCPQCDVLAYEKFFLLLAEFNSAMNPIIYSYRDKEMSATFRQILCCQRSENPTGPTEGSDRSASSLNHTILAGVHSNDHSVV
Chain of hLPAR1 (human lysophosphatidic acid receptor 1, Accession No.: NM_001401.4) (Q92633 whole entry): as above

For the compound `CCC(F)(F)[C@@H](C)OC(=O)Nc1c(-c2ccc(C#CC3(CC(=O)O)CC(OC)C3)c(C(F)(F)F)n2)nnn1C` (stereo partly drawn) [compound 463], in series [1] (SD rats, Iv), the AUC(0-t) lay in the range of 3000 to 5000 ng·h/mL, the half-life was 5.44 h and the maximum concentration (Cmax) is 5000 to 8000 ng/mL. Moreover, in series [1] (SD rats, Po), the AUC(0-t) was 5000 to 10000 ng·h/mL, the half-life is 5.47 h and the highest concentration (Cmax) fell in the range of 800 to 5000 ng/mL. Besides, the half-maximal inhibitory concentration (IC50) at LPAR1 receptor amounted to 38.2 nM.

As for `CCc1nc(-c2nnn(C)c2NC(=O)O[C@H](C)C(F)(F)CC)ccc1C#CC1(CC(=O)O)CC(OC)C1` (stereo partly drawn) [compound 462], the half-life is 6.41 h in series [1] (male, SD, iv) and 5.41 h in series [1] (male, SD, po). For the same compound, the AUC(0-t) is 5000 to 10000 ng·h/mL in series [1] (male, SD rats, Iv) and 10000 to 20000 ng·h/mL in series [1] (male, SD rats, Po). In addition, the Cmax in series [1] (male, SD rats, Iv) fell in the range of 8000 to 12000 ng/mL; in series [1] (male, SD rats, Po), 800 to 5000 ng/mL. Further, the half-maximal inhibitory concentration (IC50) on LPAR1 receptor is 48.7 nM.

Turning to `CCc1nc(-c2noc(C)c2NC(=O)O[C@H](C)C(F)(F)CC)ccc1C#CC1(CC(=O)O)CC(OC)C1` (stereo partly drawn) [compound 492], in series [1] (SD rats, Iv), the area under the curve AUC(0-t) is 5000 to 10000 ng·h/mL, the half-life is 3.92 h and the Cmax fell in the range of 800 to 5000 ng/mL. Moreover, in series [1] (SD rats, Po), the AUC(0-t) fell in the range of 5000 to 10000 ng·h/mL, the half-life was 3.75 h and the Cmax was 800 to 5000 ng/mL. The IC50 on LPAR1 receptor is 8.6 nM.

For `CCC(F)(F)[C@@H](C)OC(=O)Nc1c(-c2ccc(C#CC3(CC(=O)O)CC3)c(C)n2)noc1C` [compound 444], in series [1] (SD rats, Iv), the exposure AUC(0-t) was 1200 to 3000 ng·h/mL, the half-life was 2.91 h and the Cmax fell in the range of 800 to 5000 ng/mL. Also, in series [1] (SD rats, Po), the area under the curve AUC(0-t) lay within 3000 to 5000 ng·h/mL, the half-life is 3.61 h and the Cmax lay within 200 to 800 ng/mL. Besides, the IC50 at LPAR1 receptor is 48.4 nM.

For `CCC(F)(F)[C@@H](C)OC(=O)Nc1c(-c2ccc(C#CC3(CC(=O)O)CC(OC)C3)c(Cl)n2)noc1C` (stereo partly drawn) [compound 470], the IC50 at LPAR1 receptor stood at 24.1 nM.

In the case of `CCC[C@@H](C)OC(=O)Nc1c(-c2ccc(C#CC3(CS(=O)(=O)O)CC4(CC4)C3)c(C)n2)nnn1C` [compound 508, (R)-(5-((2-methyl-6-(1-methyl-5-(((pentan-2-yloxy)carbonyl)amino)-1H-1,2,3-triazol-4-yl)pyridin-3-yl)ethynyl)spiro[2.3]hexan-5-yl)methanesulfonic acid], the half-inhibitory concentration (IC50) on LPAR1 receptor worked out at 4 nM.

In the case of `Cc1nc(-c2nnn(C)c2NC(=O)O[C@H](C)CC(C)(F)F)ccc1C#CC1(CC(=O)O)CC2(CC2)C1` [compound 448], the IC50 on LPAR1 receptor came out at 6.8 nM.

For the compound `CCC(F)(F)[C@@H](C)OC(=O)Nc1c(-c2ccc(C#CC3(CC(=O)O)CC4(CC4)C3)c(C(F)(F)F)n2)nnn1C` [compound 499], the IC50 on LPAR1 receptor worked out at 11.5 nM.

As to `CCC(F)(F)[C@@H](C)OC(=O)Nc1c(C)noc1-c1ccc(C#CC2(CC(=O)O)CC2)c(C)n1` [compound 277], on LPAR1 receptor, the IC50 stood at 26.6 nM.

With `CCC(F)(F)[C@@H](C)OC(=O)Nc1c(C)noc1-c1ccc(C#C[C@@H]2CC(F)(F)C[C@H]2C(=O)O)c(C)n1` [compound 487], the concentration for half-maximal inhibition (IC50) on LPAR1 receptor worked out at 35.2 nM.

Consider `CCC[C@@H](C)OC(=O)Nc1c(-c2ccc(C#C[C@@H]3C[C@H]3C(=O)O)c(C)n2)nnn1C` (mixture of isomers) [224-B, trans-2-((2-methyl-6-(1-methyl-5-(((((R)-pentan-2-yl)oxy)carbonyl)amino)-1H-1,2,3-triazol-4-yl)pyridin-3-yl)ethynyl)cyclopropane-1-carboxylic acid], for which the half-maximal inhibitory concentration (IC50) in series [2] came to 70 nM; at LPAR1 receptor it was 127 nM.

The AUC(0-t) is the area under the concentration-time curve up to a stated or last time point. Read a low AUC(0-t) as less exposure. As a reminder, the half-life is the time in which the quantity being followed falls by half. Read a low half-life as fast loss. Broadly, the Cmax is the maximum level reached in the sampled fluid or tissue. As a reminder, the IC50 is the concentration that inhibits the measured activity by half.
